Experimental data taken from patent US10065990B2, “Cyclic peptide compound, and preparation method, pharmaceutical composition and use thereof” (HANGZHOU GUANYU BIO-MEDICAL CO., LTD, priority 2013, dated 2018).
Read-outs that look alike come from different tables or passages of the source.

Assays:
[1] = target: HDAC2 (Homo sapiens, UniProt Q92769); assay: HDAC biochemical activity measurement (fluorescent substrate deacetylation);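 also: HDAC2 enzyme with an acetyl-lysine fluorescent substrate, then developer added, fluorescence read at excitation 360 nm and emission 460 nm, inhibition measured across several compound concentrations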; details: 37° C. 30 minutes
[2] = target: T1, HDAC7 (Homo sapiens, UniProt Q8WUI4); assay: as above; details: HDAC7; 37° C. 30 minutes;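 also: fluorogenic deacetylation assay using acetyl-lysine substrate at 20 µM, enzyme and compound incubated 30 min at 37 °C, then developer added, fluorescence read at 360/460 nm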
T1 sequence (Q8WUI4 1-952): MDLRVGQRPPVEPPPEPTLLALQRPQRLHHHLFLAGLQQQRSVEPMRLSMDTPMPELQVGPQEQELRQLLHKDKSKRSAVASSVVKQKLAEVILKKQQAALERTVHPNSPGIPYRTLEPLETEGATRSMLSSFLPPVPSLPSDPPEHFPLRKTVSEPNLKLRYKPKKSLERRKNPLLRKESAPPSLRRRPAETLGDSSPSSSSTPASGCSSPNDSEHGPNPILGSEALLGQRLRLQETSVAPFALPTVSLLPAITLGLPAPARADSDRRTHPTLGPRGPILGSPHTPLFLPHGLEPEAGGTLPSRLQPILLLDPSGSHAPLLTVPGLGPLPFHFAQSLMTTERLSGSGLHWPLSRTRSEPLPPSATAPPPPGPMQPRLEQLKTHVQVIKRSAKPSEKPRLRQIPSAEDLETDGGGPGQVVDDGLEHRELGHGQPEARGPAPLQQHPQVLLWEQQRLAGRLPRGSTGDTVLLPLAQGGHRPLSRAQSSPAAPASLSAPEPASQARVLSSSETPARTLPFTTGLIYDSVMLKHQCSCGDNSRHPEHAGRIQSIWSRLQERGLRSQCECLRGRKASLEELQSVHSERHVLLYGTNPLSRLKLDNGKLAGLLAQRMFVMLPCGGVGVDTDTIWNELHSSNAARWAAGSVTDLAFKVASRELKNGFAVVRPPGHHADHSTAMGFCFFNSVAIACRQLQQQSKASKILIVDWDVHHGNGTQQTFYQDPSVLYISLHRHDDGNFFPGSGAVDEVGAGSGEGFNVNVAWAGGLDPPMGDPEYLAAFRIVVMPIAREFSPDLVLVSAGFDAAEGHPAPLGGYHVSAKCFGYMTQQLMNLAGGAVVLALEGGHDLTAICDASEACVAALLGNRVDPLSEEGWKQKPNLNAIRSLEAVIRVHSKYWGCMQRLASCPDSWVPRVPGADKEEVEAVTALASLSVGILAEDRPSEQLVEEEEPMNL

[3] = system: H1975 (non-small cell lung adenocarcinoma); assay: MTT cancer cell growth inhibition; type: cell-based; details: Homo sapiens, NCI-H1975, 72 h, MTT, 72 hours incubation, H1975 cells; read-out: GI50 H1975
Method in brief: (§1)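 Absorbance at 570 nm of DMSO-dissolved formazan, formed during a 4 h MTT incubation, served as the viability measure. Cells had been exposed 72 h to drug at 10^−5–10^−10 M final; GI50 was calculated from these readings.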

[4] = system: K562 (human leukemia cells); assay: MTT cancer cell growth inhibition; type: cell-based; details: MTT, 72 hours incubation, K562 cells, read-out: GI50 K562
Method in brief: as §1

[5] = system: KBM-5 (human chronic myelogenous leukemia); assay: MTT cancer cell growth inhibition; type: cell-based; details: Homo sapiens, KBM5, 72 h, MTT, 72 hours incubation, KBM-5 cells; read-out: GI50 KBM-5
Method in brief: as §1

[6] = system: KBM5-T315I (human chronic myelogenous leukemia); assay: MTT cancer cell growth inhibition; type: cell-based; details: Homo sapiens, 72 h, MTT, 72 hours incubation, KBM5-T315I cells; read-out: GI50 KBM5-T315I
Method in brief: as §1

[7] = system: lncap (prostate cancer cells); assay: MTT cancer cell growth inhibition; type: cell-based; details: Homo sapiens, LNCaP, 72 h, MTT
Method in brief: as §1

[8] = target: HDAC3 (Homo sapiens, UniProt O15379); assay: HDAC biochemical activity measurement (fluorescent substrate deacetylation);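 also: fluorogenic acetyl-lysine substrate (20 µM) deacetylated by HDAC3, then developer added for 15 min at room temperature, release of fluorophore read at excitation 360 nm, emission 460 nm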
Description: The chemical activity of the compound is determined according to the degree of deacetylation inhibition of the HDAC enzyme. This experiment measured the degree of deacetylation related to tumor proliferation and metastasis of HDAC1, HDAC2, HDAC3, HDAC8, HDAC11 five subtypes HDAC enzymes. After the substrate containing an acetylated lysine side chain and HDAC enzyme are labeled with a fluorescent label, the fluorescent substrate is de acetyl. The fluorescent labeled substrate is cleaved by the enzyme, and the fluorescent substance is released, which generates 460 nm emission light under the excitation of 360 nm light.
HDAC substrate was diluted with reaction buffer to 200M (reaction concentration of 20M), the HDAC enzyme was diluted to the appropriate concentration, then added different concentrations of the test compounds and acted at 37° C. 30 minutes, and then added the same volume of 2-times concentration substrate developing solution (developer), incubated at room temperature for 15 minutes.

[9] = 72 hours incubation, read-out: GI50 lnca
[10] = read-out: IC50 HDAC3, HDAC3, 37° C. 30 minutes
[11] = 72 hours, present invention, read-out: GI50 lncap, a
[12] = lncap cells, 72 hours incubation, read-out: GI50 lnca

Sequence of HDAC2 (Q92769 whole entry, species assumed): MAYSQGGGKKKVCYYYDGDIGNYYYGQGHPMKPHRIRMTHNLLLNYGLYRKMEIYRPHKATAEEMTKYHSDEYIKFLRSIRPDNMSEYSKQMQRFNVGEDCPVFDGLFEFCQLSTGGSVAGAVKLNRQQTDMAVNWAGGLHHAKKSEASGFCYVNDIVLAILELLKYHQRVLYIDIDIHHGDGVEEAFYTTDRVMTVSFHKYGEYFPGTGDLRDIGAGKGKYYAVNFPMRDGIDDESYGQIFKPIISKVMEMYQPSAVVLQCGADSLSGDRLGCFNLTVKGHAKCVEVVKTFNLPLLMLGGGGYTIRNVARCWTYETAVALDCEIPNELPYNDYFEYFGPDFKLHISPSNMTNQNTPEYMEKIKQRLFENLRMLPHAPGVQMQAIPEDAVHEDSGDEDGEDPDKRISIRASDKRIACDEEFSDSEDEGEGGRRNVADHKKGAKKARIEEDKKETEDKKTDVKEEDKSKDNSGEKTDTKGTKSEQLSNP
Sequence of HDAC3 (O15379 whole entry, species assumed): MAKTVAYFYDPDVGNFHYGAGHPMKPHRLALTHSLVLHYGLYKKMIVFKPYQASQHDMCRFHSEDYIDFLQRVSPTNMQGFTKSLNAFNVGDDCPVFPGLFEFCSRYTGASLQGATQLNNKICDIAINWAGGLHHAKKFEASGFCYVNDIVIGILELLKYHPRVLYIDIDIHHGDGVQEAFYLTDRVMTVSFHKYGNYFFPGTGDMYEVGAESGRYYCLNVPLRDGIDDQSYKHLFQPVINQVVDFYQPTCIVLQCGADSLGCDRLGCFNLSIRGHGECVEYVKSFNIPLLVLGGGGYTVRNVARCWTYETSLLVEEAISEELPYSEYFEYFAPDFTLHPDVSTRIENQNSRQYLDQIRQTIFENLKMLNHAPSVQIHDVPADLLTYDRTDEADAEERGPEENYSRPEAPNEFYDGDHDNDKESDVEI
Sequence of HDAC3 (Q9Y618 395-489 partner limits assumed, species assumed): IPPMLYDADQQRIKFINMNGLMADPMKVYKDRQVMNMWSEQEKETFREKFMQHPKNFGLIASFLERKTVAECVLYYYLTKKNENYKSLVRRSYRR

| Structure (SMILES) | IC50 [1] | IC50 HDAC7 [2] | GI50 [3] | GI50 ([4]; Homo sapiens, K562, 72 h) | GI50 [5] | GI50 [6] | GI50 [7, 9] | IC50 [8, 10] | IC50 [8] | GI50 [7, 11] | GI50 [7, 12] | GI50 [4] |
| --- | --- | --- | --- | --- | --- | --- | --- | --- | --- | --- | --- | --- |
| C/C=C1\NC(=O)c2cc(F)cc(n2)CNC(=O)C[C@@H](/C=C/CCSC(=O)CCCCCCC)OC(=O)[C@H](Cc2ccccc2)NC1=O [Compound 70] | 43 nM | no activity | 62 nM | 52 nM | 93 nM | 37 nM | 30 nM | 24 nM |  |  |  |  |
| C/C=C1\NC(=O)c2cccc(n2)CNC(=O)C[C@@H](/C=C/CCSC(=O)CCCCCCC)OC(=O)[C@@H](C)NC1=O [Compound 236] | 38 nM | no activity | 72 nM | 73 nM | 33 nM | 53 nM |  | 66 nM |  | 530 nM | 50 nM |  |
| C/C=C1\NC(=O)c2cc(SCCC)cc(n2)CNC(=O)C[C@@H](/C=C/CCSC(=O)CCCCCCC)OC(=O)[C@H](CC)NC1=O [Compound 175] | 32 nM | no activity | 42 nM | 39 nM | 42 nM | 47 nM |  |  | 11 nM |  | 80 nM |  |
| C/C=C1\NC(=O)c2cc(F)cc(n2)CNC(=O)C[C@@H](/C=C/CCSC(=O)CCCC)OC(=O)[C@H](C(C)C)NC1=O [Compound 40] | 53 nM | no activity | 43 nM | 41 nM | 79 nM | 55 nM | 30 nM | 42 nM |  |  |  |  |
| C/C=C1\NC(=O)c2cccc(n2)CCNC(=O)C[C@@H](/C=C/CCS)OC(=O)[C@H](C(C)C)NC1=O [Compound 146] | 34 nM | no activity | 73 nM | 43 nM | 33 nM | 23 nM | 40 nM |  | 28 nM |  |  |  |
| C/C=C1\NC(=O)c2cccc(n2)CNC(=O)C[C@@H](/C=C/CCSC(=O)CCCCCCC)OC(=O)[C@H](Cc2ccccc2)NC1=O [Compound 14] | 59 nM | no activity | 62 nM | 36 nM | 94 nM | 12 nM | 200 nM | 43 nM |  | 200 nM |  |  |
| C/C=C1\NC(=O)c2nc(ccc2SC)CNC(=O)C[C@@H](/C=C/CCSC(=O)CCCCC)OC(=O)[C@H](C(C)C)NC1=O [Compound 153] | 31 nM | no activity | 31 nM | 32 nM | 28 nM | 31 nM |  |  | 36 nM |  | 50 nM |  |
| C/C=C1\NC(=O)c2cc(F)cc(n2)CNC(=O)C[C@@H](/C=C/CCSC(=O)CCC)OC(=O)[C@H](C(C)C)NC1=O [Compound 43] | 51 nM | no activity | 62 nM | 52 nM | 81 nM | 54 nM | 30 nM | 46 nM |  |  |  |  |
| C/C=C1\NC(=O)c2cccc(n2)CNC(=O)C[C@@H](/C=C/CCSC(C)=O)OC(=O)[C@H](CCCCNC(=O)OCC2c3ccccc3-c3ccccc32)NC1=O [Compound 16] | 56 nM | no activity | 39 nM | 25 nM | 82 nM | 19 nM | 82100 nM | 49 nM |  |  |  |  |
| C/C=C1\NC(=O)c2cc(F)cc(n2)CNC(=O)C[C@@H](/C=C/CCSC(C)=O)OC(=O)[C@H](C(C)C)NC1=O [Compound 94] | 35 nM | no activity | 34 nM |  | 61 nM | 35 nM | 30 nM |  | 28 nM |  |  | 39 nM |
| C/C=C1\NC(=O)c2nc(ccc2F)CNC(=O)C[C@@H](/C=C/CCSC(=O)CCCCC)OC(=O)[C@H](C(C)C)NC1=O [Compound 36] | 43 nM | no activity | 19 nM | 29 nM | 61 nM | 57 nM | 40 nM | 37 nM |  |  |  |  |
| C/C=C1\NC(=O)c2cc(SC)cc(n2)CNC(=O)C[C@@H](/C=C/CCSC(C)=O)OC(=O)[C@H](CC)NC1=O [Compound 178] | 26 nM | no activity | 89 nM | 53 nM | 93 nM | 22 nM |  |  | 35 nM |  | 50 nM |  |
| C/C=C1\NC(=O)c2nc(ccc2F)CCNC(=O)C[C@@H](/C=C/CCSC(C)=O)OC(=O)[C@H](C(C)C)NC1=O [Compound 103] | 29 nM | no activity | 26 nM | 34 nM | 31 nM | 51 nM | 20 nM |  | 53 nM |  |  |  |
| CC(=O)SCC/C=C/[C@@H]1CC(=O)NCc2cccc(n2)C(=O)NC(=C(C)C)C(=O)N[C@@H](C(C)C)C(=O)O1 [Compound 20] | 77 nM | no activity | 35 nM | 24 nM | 61 nM | 33 nM | 5100 nM | 45 nM |  |  |  |  |

The next lines start with the values.

| IC50 [1] | IC50 HDAC7 [2] | GI50 [3] | GI50 ([4]; Homo sapiens, K562, 72 h) | GI50 [5] | GI50 [6] | GI50 [7, 9] | IC50 [8, 10] | IC50 [8] | GI50 [7, 11] | GI50 [7, 12] | GI50 [4] | Structure (SMILES) |
| --- | --- | --- | --- | --- | --- | --- | --- | --- | --- | --- | --- | --- |
| 37 nM | no activity | 42 nM | 27 nM | 74 nM | 83 nM | 10 nM |  | 16 nM |  |  |  | C/C=C1\NC(=O)c2nc(ccc2F)CNC(=O)C[C@@H](/C=C/CCSC(=O)CCCCCCC)OC(=O)[C@H](C)NC1=O [Example 60] |
| 56 nM | no activity | 91 nM | 63 nM | 29 nM | 23 nM |  | 47 nM |  | 17 nM | 10 nM |  | C/C=C1\NC(=O)c2cccc(n2)CNC(=O)C[C@@H](/C=C/CCSC(=O)CCCCCCC)OC(=O)[C@H](Cc2cccc3ccccc23)NC1=O [Compound 239] |
| 29 nM | no activity | 51 nM | 63 nM | 73 nM | 28 nM | 20 nM |  | 34 nM |  |  |  | C/C=C1\NC(=O)c2ccc(F)c(n2)CNC(=O)C[C@@H](/C=C/CCSC(=O)CCCCCCC)OC(=O)[C@H](Cc2ccccc2)NC1=O [Example 71] |
| 129 nM | no activity | 29 nM | 39 nM | 37 nM | 350 nM | 20 nM |  | 231 nM |  |  |  | C/C=C1\NC(=O)c2ccc(F)c(n2)CNC(=O)C[C@@H](/C=C/CCSC(C)=O)OC(=O)[C@H](CCCCN)NC1=O [Example 74] |
| 53 nM | no activity | 73 nM | 53 nM | 23 nM | 12 nM |  | 32 nM |  | 990 nM | 990 nM |  | C=C1NC(=O)c2cccc(n2)CNC(=O)C[C@@H](/C=C/CCSC(=O)CCCCCCC)OC(=O)[C@H](C(C)C)NC1=O [Compound 244] |
| 52 nM | no activity | 63 nM | 46 nM | 83 nM | 77 nM | 20 nM |  | 51 nM |  |  |  | C/C=C1\NC(=O)c2nc(ccc2F)CNC(=O)C[C@@H](/C=C/CCSC=O)OC(=O)[C@H](C(C)C)NC1=O [Example 51] |
